Results from publication PMC11811597, “Phenomics‐Based Discovery of Novel Orthosteric Choline Kinase Inhibitors” (Angewandte Chemie (International Ed. in English), 2025).

System: MCF7, MDA‐MB‐231, HEK293, HepG2, U2OS and K562 cells
Test: 72 h cell viability assay (Cell Titer-Glo)
Assay type: cell-based, human
Details: 0-50 μM
Excerpt: We compared morphological fingerprints of multiple parameters to assess overall biological similarity (Biol. Sim.) (Figure 1B).
A-366 and UNC0638 were purchased from Tocris. ARIAD and V-11-07-11 were purchased from Wuxi Apptec. UNC0737 and UNC0965 were synthesised as previously described.[1] Hemicholinium-3 and pyruvate kinase/lactic dehydrogenase enzymes were purchased from Sigma Aldrich. Aqueous and organic solvents were MS-grade and acquired by Sigma Aldrich unless stated otherwise.
MDA-MB-231, MCF7 and HEK293 cells were cultured in DMEM (Gibco, #11965092) supplemented with 10% FBS. K562 were cultured in IMDM (Gibco, #12440053) supplemented with 10% FBS. HepG2 were cultured in MEM (Gibco, #11095080) supplemented with 10 % FBS. […]
cultured in McCoy’s 5A (Sigma, M8403) supplemented with 10 % FBS and 1x GlutaMAX (Gibco, #35050061). Cells were maintained at 37 °C in a humidified 5% CO2 atmosphere. Peripheral blood mononuclear cells (PBMC) were isolated from healthy blood donors by density centrifugation.
MDA-MB-231, MCF7 or HEK293 cells (7.5 × 10^4 cells/mL) were each plated into x1 white 384-well polystyrene plate (Greiner Bio-One Ltd). A-366, […] and UNC0737 were directly added to each well of the cell line plates, at final concentrations 0-50 μM and incubated for 72 h at 37 °C/ 5% CO2.
Cell Titer-Glo® reagent was added to each well and total luminescence readings were performed within 15 min using the PHERAstar FSX (BMG Labtech). The cell viability results were normalised to the DMSO control and plotted using the sigmoidal dose-response (variable slope) equation in […]
Chemical Proteomics Drug Pulldown
For lysate generation MCF7 cells were grown until approximately 80% confluency before being pelleted and washed with PBS. […]
MDA-MB-231, […], HepG2, U2OS and K562 cells following treatment with A-366, UNC0638 and UNC0737 after 72 h measured by Cell Titer Glo assay (n=3). […]

Row | Compound | effect on cell viability
1 | COc1cc2c(NC3CCN(C(C)C)CC3)nc(C3CCCCC3)nc2cc1OCCCN1CCCC1 [UNC0638] | antiproliferative effects
2 | COc1cc2c(N(C)C3CCN(C(C)C)CC3)nc(C3CCCCC3)nc2cc1OCCCN1CCCC1 [UNC0737] | antiproliferative effects
